Like-named read-outs stand apart in the source and are kept apart here.
Assays:
[1] = molecular target: T1, Fatty acid amide hydrolase (FAAH) (Rattus norvegicus, UniProt P97612); details: reference compound, historical value; cited from earlier work
T1 sequence (P97612 1-579): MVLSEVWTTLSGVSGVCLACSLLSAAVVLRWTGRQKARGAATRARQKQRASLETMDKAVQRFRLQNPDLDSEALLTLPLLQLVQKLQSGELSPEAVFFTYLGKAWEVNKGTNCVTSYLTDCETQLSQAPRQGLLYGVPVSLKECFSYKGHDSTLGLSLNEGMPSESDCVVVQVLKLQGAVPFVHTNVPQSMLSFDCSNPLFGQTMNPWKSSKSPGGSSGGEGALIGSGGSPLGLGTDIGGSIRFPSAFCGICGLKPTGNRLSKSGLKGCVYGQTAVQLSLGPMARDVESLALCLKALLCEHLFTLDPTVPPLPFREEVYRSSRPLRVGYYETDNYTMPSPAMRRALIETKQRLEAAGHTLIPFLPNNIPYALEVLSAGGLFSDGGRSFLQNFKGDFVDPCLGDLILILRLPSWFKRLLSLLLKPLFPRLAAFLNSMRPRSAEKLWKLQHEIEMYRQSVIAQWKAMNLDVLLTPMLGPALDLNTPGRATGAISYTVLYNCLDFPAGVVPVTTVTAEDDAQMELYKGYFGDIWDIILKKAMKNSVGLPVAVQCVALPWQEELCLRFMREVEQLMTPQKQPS

[2] = molecular target: T1, Fatty acid amide hydrolase (FAAH); test: Fatty acid amide hydrolase (FAAH) inhibition, quantitation of labelled ethanolamine; assay type: biochemical, Wistar Rat; details: reference compound, concurrent

## CCCCCCCC/C=C\CCCCCCCC(=O)C(F)(F)F [Oleyl Trifluormethyl Ketone]
[1]
  IC50: 29 nM
[2]; batch 144029
  IC50: 23.5 nM
[2]; batch 144988
  IC50: 35.5 nM
